Values joined by “and” are separate entries in the source; they are usually repeats but may differ in a detail not shown here. Equal values may be shown once.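 Compound exposure: 48 hours, 5 concentrations, 96-well plates. The concentration for 50% growth inhibition is given as GI50. TGI is the concentration that stops growth completely.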
Key:
Assay in all cases: inhibition of tumour cell growth, NCI panel, 48 h
[1] = test system: 786-0 renal
[2] = test system: CCRF-CEM leukemia
[3] = test system: MALME-3M melanoma
[4] = test system: MOLT-4 leukemia
[5] = test system: NCI-H460 lung
[6] = test system: NCI/ADR-RES ovarian
[7] = test system: OVCAR-5 ovarian
[8] = test system: PC-3 prostate
[9] = test system: SNB-75 CNS
[10] = test system: TK-10 renal

SMILES	GI50 [1]	TGI [1]	GI50 [2]	TGI [2]	GI50 [3]	TGI [3]	GI50 [4]	TGI [4]	GI50 [5]	TGI [5]	GI50 [6]	TGI [6]	GI50 [7]	TGI [7]	GI50 [8]	TGI [8]	GI50 [9]	TGI [9]	GI50 [10]	TGI [10]
CC[C@@]1(O)C(=O)NCc2c1cc1n(c2=O)Cc2cc3c(NC(C)=O)cccc3nc2-1	> 100 µM	> 100 µM	> 100 µM	> 100 µM	> 100 µM	> 100 µM	> 100 µM	> 100 µM	> 100 µM	> 100 µM	> 100 µM	> 100 µM	> 100 µM	> 100 µM	> 100 µM	> 100 µM	> 100 µM	> 100 µM	> 100 µM	> 100 µM
O=C1C(Br)=CC2(C=C1Br)CCNc1c(O)c3c4c(c12)=NCCC=4C=N3		0.272 µM		0.0734 µM		0.0946 µM		0.11 µM		1.64 µM		0.58 µM		1.28 µM		0.993 µM		2.16 µM		0.792 µM
O=C1/C(=C/c2ccccc2[N+](=O)[O-])COc2ccc(O)c(O)c21	0.805 µM	4.74 µM	0.365 µM	> 50 µM	0.866 µM	3 µM	0.431 µM	> 21.8 µM	1.38 µM	4.94 µM	1.23 µM	13.6 µM	1.69 µM	3.66 µM	0.814 µM	4.89 µM	1.46 µM	6.17 µM	1.22 µM	3.32 µM
COc1cc(NC(=O)c2ccccc2Nc2ccnc(C(F)(F)F)c2)cc(OC)c1OC	> 100 µM	> 100 µM	50.7 µM	> 100 µM	82.2 µM	> 100 µM	36.9 µM	> 100 µM	69.6 µM	> 100 µM	32.3 µM	> 100 µM	> 100 µM	> 100 µM	35.3 µM	> 100 µM	34.8 µM	> 100 µM	72.3 µM	> 100 µM
CCN1C(=O)N(CC)C2C1NN=c1s/c(=C\c3ccc(OC)cc3)c(=O)n12 (stereo not given)	0.647 µM	> 100 µM	0.304 µM	> 100 µM	0.304 µM	> 100 µM	0.378 µM	> 100 µM	0.242 µM	> 100 µM	0.0744 µM	> 100 µM	0.474 µM	> 100 µM	0.14 µM	> 100 µM	0.0442 µM	2.84 µM	> 33.5 µM	> 100 µM
CS(=O)(=O)N1CCc2c(-c3cnc(N)nc3)nc(N3CCOCC3)nc21	0.696 µM and 0.562 µM	> 8.81 µM and 16.5 µM	0.658 µM and 1.23 µM	> 100 µM	0.619 µM and 0.488 µM	> 6.87 µM and 4.87 µM	0.92 µM and 0.807 µM	> 100 µM	0.333 µM and 0.286 µM	> 100 µM	2.16 µM and 1.63 µM	> 100 µM	0.685 µM and 0.461 µM	> 62.6 µM	0.279 µM and 0.258 µM	> 5.95 µM and 11 µM	0.146 µM and 0.135 µM	1.3 µM and 0.929 µM	0.197 µM and 0.221 µM	3.25 µM and 4.09 µM
Cc1cc(C#Cc2ccccc2)ccc1-n1c(/C=C/c2cc(O)ccc2O)nc2ccccc2c1=O	1.74 µM	3.15 µM	1.54 µM	7.13 µM	1.5 µM	3.72 µM	1.14 µM	3.97 µM	1.57 µM	2.91 µM	2.06 µM	5.22 µM	1.39 µM	2.7 µM	2.19 µM	8.34 µM	1.3 µM	2.78 µM	2.03 µM	5.61 µM
Cc1c(O)c(Br)c(C)c(O)c1Br (tested in a mixture with another compound)		3.2 µM		0.807 µM		3.55 µM		3.09 µM		16.1 µM		> 100 µM		34.9 µM		4.23 µM		29.3 µM		3.01 µM
CCOC(=O)c1cc(-c2ccccc2)[nH]c1N/N=C/c1c(Cl)cccc1Cl	1.39 µM	49 µM	2.3 µM	13.5 µM	3.9 µM	> 100 µM	4.24 µM	24.3 µM	0.909 µM	> 61.7 µM	0.509 µM	14.6 µM	4.99 µM	98 µM	0.502 µM	37.5 µM	1.53 µM	> 39.6 µM	13.2 µM	> 87.8 µM
CC(C)[C@H](C(=O)O[C@@H]1/C=C/C(=O)O[C@@H](C)CCC/C=C/[C@@H]2C[C@H](O)C[C@H]21)N(C)C	6.15 µM	21.1 µM	6.05 µM	75 µM	6.97 µM	32.1 µM	14.9 µM	42.2 µM	27.7 µM	82.5 µM	14.9 µM	> 87.8 µM	20.4 µM	> 89.5 µM	10.9 µM	> 57.8 µM	5.8 µM	> 43.2 µM	14.7 µM	60.8 µM
CC12CC(=O)C3C(CCC4=CC(=O)CCC43C)C1CC=C2CC(=O)O (stereo not given)		> 100 µM		> 100 µM		> 100 µM		> 100 µM		> 100 µM		> 100 µM		> 100 µM		> 100 µM		> 100 µM		> 100 µM
Cn1cc(C2=C(c3c(S(C)=O)n(C)c4ccccc34)C(=O)NC2=O)c2ccccc21 (stereo not given)	> 19.9 µM	> 25 µM	7.19 µM	> 25 µM	> 25 µM	> 25 µM	9.4 µM	> 25 µM	5.83 µM	> 25 µM	9.19 µM	> 25 µM	> 25 µM	> 25 µM	8.19 µM	> 25 µM	5.8 µM	22.3 µM	6.26 µM	> 25 µM
CC1COCCN1CC#CCOC(=O)c1cc2ccccc2oc1=O (stereo not given)	> 100 µM	> 100 µM	> 100 µM	> 100 µM	> 100 µM	> 100 µM	> 100 µM	> 100 µM	> 100 µM	> 100 µM	> 100 µM	> 100 µM	> 100 µM	> 100 µM	> 100 µM	> 100 µM	83.4 µM	> 100 µM	> 100 µM	> 100 µM
N#Cc1ccc(/C=C/C(=O)c2ccccc2)cc1	15.9 µM and 14.6 µM	> 52.2 µM and 29.2 µM	8.31 µM and 2.86 µM	> 57 µM and 11.5 µM	18.2 µM and 14.9 µM	33.6 µM and 31 µM	9.4 µM and 6.4 µM	53.3 µM and > 38.9 µM	14.5 µM and 8.35 µM	28.9 µM and 22.4 µM	22.8 µM and 24.2 µM	54.8 µM and 69.8 µM	16.6 µM and 14.6 µM	31.1 µM and 30 µM	13 µM and 10.7 µM	31.4 µM and 26.6 µM	14.5 µM and 13.9 µM	27.6 µM and 27.5 µM	14.2 µM and 12.1 µM	28.2 µM and 26 µM
N=C1C(c2nc3ccccc3s2)=C(O)CN1c1cc(Cl)cc(Cl)c1	88.7 µM	> 100 µM	> 100 µM	> 100 µM	29.4 µM	> 100 µM	> 100 µM	> 100 µM	18.5 µM	> 100 µM	> 100 µM	> 100 µM	> 100 µM	> 100 µM	> 100 µM	> 100 µM	18.7 µM	77.4 µM	> 100 µM	> 100 µM
Nc1ccc(C(=O)Nc2ccccc2N)cc1		> 100 µM		> 82 µM		30.3 µM		73.7 µM		> 100 µM		19.6 µM		> 82.7 µM		> 100 µM		> 93.1 µM		> 63.1 µM

Reference: PubChem BioAssay (NCI)
